Read-outs that look alike come from different tables or passages of the source.
Molecular target: T1, Calpain I (Homo sapiens, UniProt P07384)
T1 sequence (P07384 1-714): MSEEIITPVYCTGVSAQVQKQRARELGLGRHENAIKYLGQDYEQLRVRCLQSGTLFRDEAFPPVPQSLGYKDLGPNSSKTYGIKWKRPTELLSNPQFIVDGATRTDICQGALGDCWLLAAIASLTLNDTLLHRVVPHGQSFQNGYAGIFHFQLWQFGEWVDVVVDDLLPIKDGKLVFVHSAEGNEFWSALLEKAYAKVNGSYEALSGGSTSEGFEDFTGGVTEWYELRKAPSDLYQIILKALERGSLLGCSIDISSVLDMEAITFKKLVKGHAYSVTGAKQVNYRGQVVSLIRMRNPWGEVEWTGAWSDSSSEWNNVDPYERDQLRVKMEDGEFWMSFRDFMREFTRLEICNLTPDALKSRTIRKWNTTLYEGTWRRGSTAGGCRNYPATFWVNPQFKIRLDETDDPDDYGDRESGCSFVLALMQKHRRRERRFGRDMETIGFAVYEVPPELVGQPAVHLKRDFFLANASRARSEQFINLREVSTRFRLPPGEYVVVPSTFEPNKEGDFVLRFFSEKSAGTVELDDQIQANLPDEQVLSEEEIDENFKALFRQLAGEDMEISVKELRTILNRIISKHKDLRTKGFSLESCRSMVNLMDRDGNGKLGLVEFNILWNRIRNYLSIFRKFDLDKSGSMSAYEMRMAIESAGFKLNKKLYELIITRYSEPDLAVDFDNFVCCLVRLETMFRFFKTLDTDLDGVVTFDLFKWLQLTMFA
T1 sequence (P04632 1-268 partner): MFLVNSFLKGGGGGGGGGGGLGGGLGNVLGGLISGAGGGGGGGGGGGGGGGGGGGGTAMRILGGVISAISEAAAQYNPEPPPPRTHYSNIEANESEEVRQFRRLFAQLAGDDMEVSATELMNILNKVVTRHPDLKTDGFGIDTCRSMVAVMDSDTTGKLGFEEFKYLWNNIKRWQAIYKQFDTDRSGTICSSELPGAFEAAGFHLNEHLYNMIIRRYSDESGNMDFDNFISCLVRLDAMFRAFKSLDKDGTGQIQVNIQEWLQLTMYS
Assay: Inhibition and rate of inactivation of cysteine protease (calpain I) activity, Succ-Leu-Tyr-MNA substrate hydrolysis
Conditions: for kinact/KI: read-out: kobs/I x 10^-3 M^-1s^-1; for inhibition at 0.1 µM: read-out: % Inhib. @ 0.1 uM

[1] = apparent second order rate constant of inactivation from reaction progress curves under pseudo-first order conditions, mean of three or more determinations

Description: To evaluate inhibitory activity, stock solutions (40 times concentrated) of each compound to be tested were prepared in 100% anhydrous DMSO and 5 µl of each inhibitor preparation were aliquoted into each of three wells of a 96 well plate. […] To start the reaction, 20 µl of 50 mM CaCl2 in assay buffer was added to all wells of the plate, excepting three, which were used as background signal baseline controls. Substrate hydrolysis was monitored every 5 minutes for a total of 30 minutes. Substrate hydrolysis in the absence of inhibitor was linear for up to 15 minutes.
Inhibition of calpain I activity was calculated as the percent decrease in the rate of substrate hydrolysis in the presence of inhibitor (vi) relative to the rate in its absence (vo). Comparison between vo and vi was made within the linear range for substrate hydrolysis. […] Apparent second order rate constants were determined from analysis of reaction progress curves under pseudo-first order conditions. Each determination represents the mean of three or more independent single cuvette analyses continually monitored via a Perkin-Elmer LS50B spectrofluorimeter.

Compound	kinact/KI	inhibition at 0.1 µM	also measured
CC(C)C[C@H](NC(=O)C12OC(CO)C(O)C1OC(C)(C)O2)C(=O)N[C@@H](Cc1ccccc1)C(=O)COP(=O)(OCc1ccccc1)OCc1ccccc1 (stereo partly drawn) [Example 38, Dibenzyl (3S)-[3-[(N-monoisopropylidine-2-keto-L-gulonyl-L-leucyl)amino]-2-oxo-4-phenylbutyl] phosphate]	–	–	kobs/I x 10^-3 M^-1s^-1 [1]: 116 x 10^-3 M^-1s^-1
Cc1ccccc1P(=O)(OCC(=O)[C@H](Cc1ccccc1)NC(=O)[C@H](CC(C)C)NC(=O)OCc1ccccc1)c1ccccc1C [Example 55, (3S)-[3-[(N-Benzyloxycarbonyl-L-leucyl)amino]-2-oxo-4-phenylbutyl] bis(2-methylphenyl)phosphinate]	31000 M⁻¹ s⁻¹	–	–
COP(=O)(OC)OCC(=O)[C@H](Cc1ccccc1)NC(=O)[C@H](CC(C)C)NC(=O)OCc1ccccc1 [Example 42, Dimethyl (3S)-[3-[(N-Benzyloxycarbonyl-L-leucyl)amino]-2-oxo-4-phenylbutyl] phosphate]	20000 M⁻¹ s⁻¹	–	–
CC(C)CC(NC(=O)C12OC3COC(C)(C)OC3C1OC(C)(C)O2)C(=O)NC(Cc1ccccc1)C(=O)COP(=O)(OCc1ccccc1)OCc1ccccc1 [Example 37, Dibenzyl (3S)-[3-[(N-diisopropylidine-2-keto-L-gulonyl-L-leucyl)amino)-2-oxo-4-phenylbutyl] phosphate]	–	–	kobs/I x 10^-3 M^-1s^-1: 113 x 10^-3 M^-1s^-1
CC(C)C[C@H](NC(=O)OCc1ccccc1)C(=O)N[C@@H](Cc1ccccc1)C(=O)COP(=O)(OCc1ccccc1)c1ccccc1 (stereo partly drawn) [Example 49, Benzyl (3S)-[3-[(N-Benzyloxycarbonyl-L-leucyl)amino]-2-oxo-4-phenylbutyl]phenylphosphonate]	–	90%	–
CC(C)C[C@H](NC(=O)OCc1ccccc1)C(=O)N[C@@H](Cc1ccccc1)C(=O)COP(=O)(OCc1cccc(Oc2ccccc2)c1)OCc1cccc(Oc2ccccc2)c1 [Example 40, Bis(3-phenoxybenzyl) (3S)-[3-[(N-Benzyloxycarbonyl-L-leucyl)amino]-2-oxo-4-phenylbutyl] phosphate]	–	53%	–
CC(C)C[C@H](NC(=O)OCc1ccccc1)C(=O)N[C@@H](Cc1ccccc1)C(=O)COP(=O)(OCCc1ccccc1)OCCc1ccccc1 [Example 46, Diphenethyl (3S)-[3-[(N-Benzyloxycarbonyl-L-leucyl)amino]-2-oxo-4-phenylbutyl] phosphate]	380000 M⁻¹ s⁻¹	99%	–
CCCCOP(=O)(OCCCC)OCC(=O)[C@H](Cc1ccccc1)NC(=O)[C@H](CC(C)C)NC(=O)OCc1ccccc1 [Example 43, Dibutyl (3S)-[3-[(N-Benzyloxycarbonyl-L-leucyl)amino]-2-oxo-4-phenylbutyl] phosphate]	40000 M⁻¹ s⁻¹	–	–
CC(C)C[C@H](NC(=O)OCc1ccccc1)C(=O)N[C@@H](Cc1ccccc1)C(=O)COP(=O)(OCCN1CCCC1=O)c1ccccc1 (stereo partly drawn) [Example 51, (3S)-[3-[(N-Benzyloxycarbonyl-L-leucyl)amino]-2-oxo-4-phenylbutyl] 2-(2-oxopyrrolidin-1-yl)ethyl phenylphosphonate]	26000 M⁻¹ s⁻¹	–	–
COc1ccccc1P(=O)(OCC(=O)[C@H](Cc1ccccc1)NC(=O)[C@H](CC(C)C)NC(=O)OCc1ccccc1)c1ccccc1 (stereo partly drawn) [Example 58, (3S)-[3-[(N-Benzyloxycarbonyl-L-leucyl)amino]-2-oxo-4-phenylbutyl] (2-methoxyphenyl)(phenyl)phosphinate]	150000 M⁻¹ s⁻¹	–	–
CC(C)C[C@H](NC(=O)OC(C)(C)C)C(=O)N[C@@H](Cc1ccccc1)C(=O)COP(=O)(OCCC1CCCCC1)OCCC1CCCCC1 [Example 45, Bis(2-cyclohexylethyl) (3S)-[3-[(N-t-Butoxycarbonyl-L-leucyl)amino]-2-oxo-4-phenylbutyl] phosphate]	–	28%	–
Cc1ccccc1COP(=O)(OCC(=O)[C@H](Cc1ccccc1)NC(=O)[C@H](CC(C)C)NC(=O)OCc1ccccc1)OCc1ccccc1C [Example 39, Bis(2-methylbenzyl) (3S)-[3-[(N-Benzyloxycarbonyl-L-leucyl)amino]-2-oxo-4-phenylbutyl] phosphate]	365000 M⁻¹ s⁻¹	–	–
CC(C)C[C@H](NC(=O)OCc1ccccc1)C(=O)N[C@@H](Cc1ccccc1)C(=O)COP(=O)(CCc1ccccc1)CCc1ccccc1 [Example 54, (3S)-[3-[(N-Benzyloxycarbonyl-L-leucyl)amino]-2-oxo-4-phenylbutyl] bis(2-phenylethyl)phosphinate]	8000 M⁻¹ s⁻¹	15%	–
CC(C)C[C@H](NC(=O)OCc1ccccc1)C(=O)N[C@@H](Cc1ccccc1)C(=O)COP1(=O)OCC(OCc2ccccc2)CO1 (stereo partly shown) [Example 47]	–	47%	–
CC(C)C[C@H](NC(=O)OCc1ccccc1)C(=O)N[C@@H](Cc1ccccc1)C(=O)COP1(=O)CC=CC1 [Example 63, (3S)-1-[[3-[(N-Benzyloxycarbonyl-L-leucyl)amino]-2-oxo-4-phenylbutyl]oxy]phosphol-3-ene 1-oxide]	–	22%	–
CCCCOP(=O)(OCCCC)C(=O)[C@H](CC(C)C)NC(=O)[C@H](CC(C)C)NC(=O)OCc1ccccc1 [Example 66, Dibutyl N-Benzyloxycarbonyl-L-leucyl-L-leucylphosphonate]	–	0%	–
CCCCCP(=O)(CCCCC)OCC(=O)[C@H](Cc1ccccc1)NC(=O)[C@H](CC(C)C)NC(=O)OCc1ccccc1 [Example 53, (3S)-[3-[(N-Benzyloxycarbonyl-L-leucyl)amino]-2-oxo-4-phenylbutyl] dipentylphosphinate]	–	19%	–
CCOP(=O)(C(=O)[C@H](CC(C)C)NC(=O)[C@H](CC(C)C)NC(=O)OCc1ccccc1)c1ccccc1 (stereo partly drawn) [Example 68, Ethyl N-benzyloxycarbonyl-L-leucyl-L-leucyl(phenyl)phosphinate]	–	0%	–
CC(C)C[C@H](NC(=O)OC(C)(C)C)C(=O)N[C@@H](Cc1ccccc1)C(=O)COP(=O)(O)O [Example 41, Dihydrogen (3S)-[3-[(N-t-Butoxycarbonyl-L-leucyl)amino]-2-oxo-4-phenylbutyl] phosphate]	< 20000 M⁻¹ s⁻¹	7%	–
Cc1ccccc1P(=O)(OCC(=O)[C@H](Cc1ccccc1)NC(=O)[C@H](CC(C)C)NC(=O)OC(C)(C)C)c1ccccc1C [Example 56, (3S)-[3-[(N-t-Butoxycarbonyl-L-leucyl)amino]-2-oxo-4-phenylbutyl] bis(2-methylphenyl)phosphinate]	22000 M⁻¹ s⁻¹	–	–
(3S)-[3-[(N-Benzyloxycarbonyl-L-leucyl)amino]-2-oxo-4-phenylbutyl] [3-(morpholin-4-yl)propyl](phenyl)phosphinate [Example 61]	–	–	kobs/I x 10^-3 M^-1s^-1 [1]: 17 x 10^-3 M^-1s^-1
COc1ccc(P(=O)(OCC(=O)[C@H](Cc2ccccc2)NC(=O)[C@H](CC(C)C)NC(=O)OCc2ccccc2)c2ccc(OC)cc2)cc1 [Example 57, (3S)-[3-[(N-Benzyloxycarbonyl-L-leucyl)amino]-2-oxo-4-phenylbutyl] bis(4-methoxyphenyl)phosphinate]	85000 M⁻¹ s⁻¹	85%	–
(3S)-2-[3-[(N-Benzyloxycarbonyl-L-leucyl)amino]-2-oxo-4-phenylbutyl] 1H-phosphindoline 2-oxide [Example 62]	–	–	% Inhib. @ 0.1 uM (0.1 uM compound, percent decrease in rate of substrate hydrolysis relative to no inhibitor): 34%
CC(C)C[C@H](NC(=O)OC(C)(C)C)C(=O)N[C@@H](Cc1ccccc1)C(=O)COP(=O)(OCc1ccccc1)OCc1ccccc1 [Example 35, Dibenzyl (3S)-[3-[(N-t-Butoxycarbonyl-L-leucyl)amino]-2-oxo-4-phenylbutyl] phosphate]	242000 M⁻¹ s⁻¹	100%	–
CCOP(=O)(CC(=O)[C@H](Cc1ccccc1)NC(=O)[C@H](CC(C)C)NC(=O)OCc1ccccc1)c1ccccc1 (stereo partly drawn) [Example 64, Ethyl (3S)-[3-[(N-benzyloxycarbonyl-L-leucyl)amino]-2-oxo-4-phenylbutyl] (phenyl)phosphinate]	–	26%	kobs/I x 10^-3 M^-1s^-1 [1]: 4 x 10^-3 M^-1s^-1
CCP(=O)(OCC(=O)[C@H](Cc1ccccc1)NC(=O)[C@H](CC(C)C)NC(=O)OCc1ccccc1)c1ccccc1 (stereo partly drawn) [Example 60, (3S)-[3-[(N-Benzyloxycarbonyl-L-leucyl)amino]-2-oxo-4-phenylbutyl] (ethyl) (phenyl)phosphinate]	–	51%	kobs/I x 10^-3 M^-1s^-1 [1]: 6 x 10^-3 M^-1s^-1
CC(C)C[C@H](NC(=O)OCc1ccccc1)C(=O)N[C@@H](Cc1ccccc1)C(=O)COP(C)(C)=O [Example 52, (3S)-[3-[(N-Benzyloxycarbonyl-L-leucyl)amino]-2-oxo-4-phenylbutyl] dimethylphosphinate]	6000 M⁻¹ s⁻¹	–	–

From patent EP1389624A1, “Phosphorous-containing cysteine and serine protease inhibitors” (CEPHALON, INC., priority 1995, dated 1997)
